Reference: patent US12576169B2, “Silicon-fluoride acceptor substituted radiopharmaceuticals and precursors thereof” (Technische Universität München, priority 2019, dated 2026)
Read-outs that look alike come from different tables or passages of the source. *1 amine or outer side, *2 acyl side, *3 side chain or, on linkers, in order; H or OH if unused. Where a SMILES comes first, the peptide text is derived from it. Side-chain parts run from the residue outwards. [ ]: non-standard residue; d: D form. The star is where a group is joined. X1 = O=C(O)CC[C@H](NC(=O)N[C@@H](CCC(=O)N[C@H](CCCN*)C(=O)O)C(=O)O)C(=O)O; Benzoyl(4-SiFtBu2) = CC(C)(C)[Si](F)(c1ccc(C(=O)*)cc1)C(C)(C)C; γGlu = O=C(O)[C@H](CCC(=O)[*:2])N[*:1]; dCit = NC(=O)NCCC[C@@H](N)C(=O)O; Suc = O=C(CCC(=O)[*:2])[*:1]; dDap = NC[C@@H](N)C(=O)O; CO = O=C([*:1])[*:2]

Legend:
[1] = n-Octanol-PBS partition coefficient (logD7.4); format: physicochemical; conditions: 18F-labeled ligand; n-octanol/PBS pH=7.4; mean ± SD (n = 5)
Experimental: Approx. 0.5 MBq of the ^18F-labeled SiFA-PSMA ligand were added into a test tube containing n-octanol (500 μL) and PBS (500 μL, pH=7.4). After vigorously shaking the two-phase mixture for 3 min at rt, the test tube was centrifuged at 9.000 rpm for 5 min to achieve quantitative phase separation. Finally, 150 μL of each layer were pipetted off and measured for activity using a gamma counter. After repeating the experiment for at least five times, the n-octanol-PBS partition coefficient log D7.4 was calculated according to following formula.

LNCaP cells = test: Internalization of 18F-labeled ligands into LNCaP cells; format: cell-based, human; conditions: internalized activity at 1 h in % of reference [125I]XII; c = 0.5 nM; LNCaP cells (125.000 cells/well); 37° C., DMEM/F-12 add. 5% BSA; corrected for non-specific binding (10 μm PMPA); mean ± SD (n = 3)
Experimental: LNCaP cells were grown in DMEM/F-12 (add. 10% FCS, v/v) and maintained at 37° C. in a humidified 5% CO2 atmosphere. […] Subsequent to the removal of the culture medium, cells were washed with DMEM-F12 (add. 5% BSA, v/v, 500 μL) and left to equilibrate in DMEM-F12 (add. 5% BSA, v/v, 200 μL) at 37° C. for 15 min. Each well was treated with either DMEM-F12 (add. 5% BSA, v/v, 25 μL) or a 2-(phosphonomethyl)-pentandioic acid (PMPA) solution (100 μM in PBS, 25 μL) for blockade. Afterwards, the ^18F-labeled SiFA-PSMA ligand (5 nM in PBS, 25 μL) was added and the cells were incubated for 1 h at 37° C. The experiment was terminated by placing the 24-well plate on ice for 3 min and removal of the assay medium. Each well was rinsed with HBSS (4° C., 250 μL) and the fractions were combined with the previous assay medium, representing the amount of unbound radioligand. For removal of surface bound activity, LNCaP cells were incubated with PMPA solution (10 μM in PBS, 4° C., 250 μL) for 5 min and rinsed again with PBS (250 μL, 4° C.). The internalized activity was determined by incubation of LNCaP cells with 1 M aq. NaOH (250 μL) for at least 10 min and combination with the fraction of a subsequent wash step with 1 M aq. NaOH (200 μL). Each experiment (control and blockade) was performed in triplicate. […] All internalization studies were accompanied by reference studies using the reference compound XII (2 nM in HBSS add. 1% BSA, v/v), which were performed analogously. Data were corrected for non-specific internalization and normalized to the specific-internalization observed for the radioiodinated reference compound.

[2] = molecular target: T1, human serum albumin (HSA) (Homo sapiens, UniProt P02768); test: Binding to HSA on a Chiralpak HSA column; format: in vitro ADME; conditions: calibration with nine reference substances
T1 construct: purchased H13H-2433
Experimental: For the determination of human serum albumin (HSA) binding, a Chiralpak HSA column (50×3 mm, 5 μm, H13H-2433) was used at a constant flow rate of 0.5 mL/min. The mobile phase composed of a 50 mM NH4OAc solution in water with pH=7 (solvent C) and isopropanol (solvent D) was freshly prepared for each experiment and used only once. The reference substances (Table 1) as well as the analyzed SiFA-PSMA ligands were dissolved in a mixture of solvent C/solvent D (1:1, v/v, 0.5 mg/mL) and eluted from the HSA column (0-3 min: 100% C, 3-20 min: 20% D in C, λ=254 nm). The column was kept at rt and each run was stopped after detection of the signal to reduce the acquisition time. The nine reference substances display an HSA binding range of 13% to 99% and were injected consecutively in order to establish a sigmoidal calibration curve with the software OriginPro 2018b (FIG. 1).

PSMA = PSMA (Homo sapiens, UniProt Q04609); test: IC50 determination: PSMA binding affinity, competition with [125I]XII on LNCaP cells
Experimental: LNCaP cells were grown in Dulbecco's Modified Eagle Medium/Nutrient Mixture F-12 (DMEM/F-12, add. 10% fetal calf serum (FCS), v/v) and maintained at 37° C. in a humidified 5% CO2 atmosphere. […] After removal of the culture medium, LNCaP cells were treated with HBSS (add. 1% BSA, v/v, 4° C., 500 μL) and subsequently left 15 min on ice for equilibration in HBSS (add. 1% BSA, v/v, 4° C., 200 μL). […] For the control series, HBSS (add. 1% BSA, v/v, 25 μL) was used instead of the SiFA-PSMA ligand solution. Each concentration and the control were prepared in triplicate. After 1 h incubation on ice, the assay medium was removed and cells were washed with HBSS (200 μL, 4° C.). […] NaOH (200 μL) for at least 10 min and the resulting cell lysate was removed. The wells were treated again with 1 M aq. […] The experiment was repeated for at least three times and the IC50 value calculated using the GraphPad PRISM 8.0.2 software (Graphpad Software Inc., La Jolla, United States).

[3] = LNCaP cells (150.000 cells/well), reference [125I]XII c = 0.2 nM, 1 h, 4° C., HBSS add. 1% BSA, mean ± SD (n = 3)

PSMA, sequence (Q04609 whole entry): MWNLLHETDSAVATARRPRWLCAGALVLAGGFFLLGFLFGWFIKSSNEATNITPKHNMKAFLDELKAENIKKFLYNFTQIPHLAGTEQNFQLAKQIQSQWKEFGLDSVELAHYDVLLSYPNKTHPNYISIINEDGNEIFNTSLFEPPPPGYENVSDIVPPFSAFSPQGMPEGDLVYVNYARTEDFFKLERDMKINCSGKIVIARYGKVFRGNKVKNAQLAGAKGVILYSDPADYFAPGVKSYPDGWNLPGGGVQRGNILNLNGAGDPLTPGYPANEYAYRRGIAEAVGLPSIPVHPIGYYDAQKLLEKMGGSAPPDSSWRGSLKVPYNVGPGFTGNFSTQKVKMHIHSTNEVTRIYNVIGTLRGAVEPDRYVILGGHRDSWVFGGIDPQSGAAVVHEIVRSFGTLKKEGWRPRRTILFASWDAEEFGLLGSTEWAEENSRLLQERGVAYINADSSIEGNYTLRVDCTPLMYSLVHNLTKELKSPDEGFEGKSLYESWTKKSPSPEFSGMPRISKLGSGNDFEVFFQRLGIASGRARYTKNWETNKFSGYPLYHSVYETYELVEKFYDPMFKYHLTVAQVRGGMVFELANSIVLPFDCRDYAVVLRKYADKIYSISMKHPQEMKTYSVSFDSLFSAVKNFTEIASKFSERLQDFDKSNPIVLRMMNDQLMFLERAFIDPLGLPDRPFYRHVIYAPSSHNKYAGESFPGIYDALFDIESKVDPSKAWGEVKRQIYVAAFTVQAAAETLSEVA
T1 sequence (P02768 25-609): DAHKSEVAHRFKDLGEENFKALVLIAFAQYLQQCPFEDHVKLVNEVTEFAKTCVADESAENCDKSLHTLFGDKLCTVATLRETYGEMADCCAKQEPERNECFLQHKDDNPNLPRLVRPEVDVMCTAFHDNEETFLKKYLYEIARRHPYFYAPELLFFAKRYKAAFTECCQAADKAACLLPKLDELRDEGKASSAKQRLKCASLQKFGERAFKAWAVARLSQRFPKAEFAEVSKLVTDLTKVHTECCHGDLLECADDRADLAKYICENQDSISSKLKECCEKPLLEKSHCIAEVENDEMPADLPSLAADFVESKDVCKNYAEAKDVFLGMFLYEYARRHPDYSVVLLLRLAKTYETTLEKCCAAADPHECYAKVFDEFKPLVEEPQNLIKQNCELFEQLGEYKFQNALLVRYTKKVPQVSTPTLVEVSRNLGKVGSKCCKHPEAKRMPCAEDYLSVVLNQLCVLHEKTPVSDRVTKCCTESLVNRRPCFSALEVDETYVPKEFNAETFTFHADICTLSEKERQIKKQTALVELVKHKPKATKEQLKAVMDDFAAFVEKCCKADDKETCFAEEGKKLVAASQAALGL

## CC(C)(C)[Si](F)(c1ccc(C(=O)NC[C@@H](NC(=O)[C@@H](Cc2ccccc2)NC(=O)[C@@H](CCC(=O)O)NC(=O)[C@H](N)CCC(=O)O)C(=O)N[C@H](CCCCNC(=O)CCC(=O)NCCC[C@@H](NC(=O)CC[C@H](NC(=O)N[C@@H](CCC(=O)O)C(=O)O)C(=O)O)C(=O)O)C(=O)O)cc1)C(C)(C)C [SiFA-PSMA ligand 03 i] (H-[dE][dE][dF][dDap](Benzoyl(4-SiFtBu2))[dK]([Suc-X1])-OH)
[1]
  logD7.4: −2.30 ± 0.03
LNCaP cells
  Internalization: 50.33 ± 2.97%
[2]
  Binding to HSA: 98.9%
PSMA; [3]
  IC50: 20.6 ± 1.8 nM

## CC(C)(C)[Si](F)(c1ccc(C(=O)NC[C@@H](NC(=O)CCCCCNC(=O)CC[C@@H](NC(=O)N[C@H](CCC(=O)O)C(=O)O)C(=O)O)C(=O)N[C@H](CCCCNC(=O)CCC(=O)NCCC[C@@H](NC(=O)CC[C@H](NC(=O)N[C@@H](CCC(=O)O)C(=O)O)C(=O)O)C(=O)O)C(=O)O)cc1)C(C)(C)C [SiFA-PSMA ligand 02 d]
[1]
  logD7.4: −3.24 ± 0.03
LNCaP cells
  Internalization: 119.56 ± 5.84%
[2]
  Binding to HSA: ≥98.9%
PSMA
  IC50: 9.9 ± 0.8 nM

## CC(C)(C)[Si](F)(c1ccc(C(=O)NC[C@@H](NC(=O)[C@@H](Cc2ccccc2)NC(=O)CC[C@H](NC(=O)N[C@@H](CCC(=O)O)C(=O)O)C(=O)O)C(=O)N[C@H](CCCCNC(=O)CCC(=O)NCCC[C@@H](NC(=O)CC[C@H](NC(=O)N[C@@H](CCC(=O)O)C(=O)O)C(=O)O)C(=O)O)C(=O)O)cc1)C(C)(C)C [SiFA-PSMA ligand 01 k]
[1]
  logD7.4: −2.99 ± 0.02
LNCaP cells
  Internalization: 61.61 ± 1.33%
[2]
  Binding to HSA: ≥98.9%
PSMA; [3]
  IC50: 29.4 ± 0.6 nM

## C[C@H](O)[C@@H](NC(=O)[C@@H](CCC(=O)O)NC(=O)[C@H](N)CCC(=O)O)C(=O)N[C@H](CNC(=O)c1ccc([Si](F)(C(C)(C)C)C(C)(C)C)cc1)C(=O)N[C@H](CCCCNC(=O)CCC(=O)NCCC[C@@H](NC(=O)CC[C@H](NC(=O)N[C@@H](CCC(=O)O)C(=O)O)C(=O)O)C(=O)O)C(=O)O [SiFA-PSMA ligand 03 h] (H-[dE][dE][dT][dDap](Benzoyl(4-SiFtBu2))[dK]([Suc-X1])-OH)
[1]
  logD7.4: −3.66 ± 0.03
LNCaP cells
  Internalization: 107.42 ± 3.66%
[2]
  Binding to HSA: 97.8%
PSMA; [3]
  IC50: 10.7 ± 2.1 nM

## CC(C)(C)[Si](F)(c1ccc(C(=O)NC[C@@H](NC(=O)[C@@H](CCCNC(N)=O)NC(=O)[C@@H](CCCNC(N)=O)NC(=O)[C@H](N)CCCNC(N)=O)C(=O)N[C@H](CCCCNC(=O)CCC(=O)NCCC[C@@H](NC(=O)CC[C@H](NC(=O)N[C@@H](CCC(=O)O)C(=O)O)C(=O)O)C(=O)O)C(=O)O)cc1)C(C)(C)C [SiFA-PSMA ligand 05] (H-[dCit][dCit][dCit][dDap](Benzoyl(4-SiFtBu2))[dK]([Suc-X1])-OH)
[1]
  logD7.4: −3.17 ± 0.02
LNCaP cells
  Internalization: 90.13 ± 6.13%
[2]
  Binding to HSA: 95.7%
PSMA
  IC50: 16.2 ± 2 nM

## CC(C)(C)[Si](F)(c1ccc(C(=O)NC[C@@H](NC(=O)[C@@H](CCCCN)NC(=O)[C@@H](CCC(=O)O)NC(=O)[C@H](N)CCC(=O)O)C(=O)N[C@H](CCCCNC(=O)CCC(=O)NCCC[C@@H](NC(=O)CC[C@H](NC(=O)N[C@@H](CCC(=O)O)C(=O)O)C(=O)O)C(=O)O)C(=O)O)cc1)C(C)(C)C [SiFA-PSMA ligand 03 f] (H-[dE][dE][dK][dDap](Benzoyl(4-SiFtBu2))[dK]([Suc-X1])-OH)
[1]
  logD7.4: −3.43 ± 0.02
LNCaP cells
  Internalization: 94.24 ± 6.01%
[2]
  Binding to HSA: 96.9%
PSMA; [3]
  IC50: 6.9 ± 1 nM

## CC(C)(C)[Si](F)(c1ccc(C(=O)NC[C@@H](NC(=O)[C@H](CCC(=O)O)NC(=O)CC[C@H](NC(=O)N[C@@H](CCC(=O)O)C(=O)O)C(=O)O)C(=O)N[C@H](CCCCNC(=O)CCC(=O)NCCC[C@@H](NC(=O)CC[C@H](NC(=O)N[C@@H](CCC(=O)O)C(=O)O)C(=O)O)C(=O)O)C(=O)O)cc1)C(C)(C)C [SiFA-PSMA ligand 01 c]
[1]
  logD7.4: −3.72 ± 0.02
LNCaP cells
  Internalization: 175.08 ± 5.93%
[2]
  Binding to HSA: ≥98.9%
PSMA; [3]
  IC50: 17 ± 0.9 nM

## CC(C)(C)[Si](F)(c1ccc(C(=O)NC[C@@H](NC(=O)CNC(=O)CC[C@H](NC(=O)N[C@@H](CCC(=O)O)C(=O)O)C(=O)O)C(=O)N[C@H](CCCCNC(=O)CCC(=O)NCCC[C@@H](NC(=O)CC[C@H](NC(=O)N[C@@H](CCC(=O)O)C(=O)O)C(=O)O)C(=O)O)C(=O)O)cc1)C(C)(C)C [SiFA-PSMA ligand 01 i]
[1]
  logD7.4: −3.96 ± 0.04
LNCaP cells
  Internalization: 160.83 ± 2.72%
[2]
  Binding to HSA: 98.9%
PSMA; [3]
  IC50: 8.8 ± 1.7 nM

## CC(C)(C)[Si](F)(c1ccc(C(=O)NC[C@@H](NC(=O)CNC(=O)[C@@H](CCC(=O)O)NC(=O)[C@H](N)CCC(=O)O)C(=O)N[C@H](CCCCNC(=O)CCC(=O)NCCC[C@@H](NC(=O)CC[C@H](NC(=O)N[C@@H](CCC(=O)O)C(=O)O)C(=O)O)C(=O)O)C(=O)O)cc1)C(C)(C)C [SiFA-PSMA ligand 03 g]
[1]
  logD7.4: −3.56 ± 0.04
LNCaP cells
  Internalization: 121.44 ± 3.72%
[2]
  Binding to HSA: 98.4%
PSMA; [3]
  IC50: 11.9 ± 2 nM

## CC(C)(C)[Si](F)(c1ccc(C(=O)NC[C@@H](NC(=O)[C@@H](CCC(=O)O)NC(=O)CC[C@H](NC(=O)N[C@@H](CCC(=O)O)C(=O)O)C(=O)O)C(=O)N[C@H](CCCCNC(=O)CCC(=O)NCCC[C@@H](NC(=O)CC[C@H](NC(=O)N[C@@H](CCC(=O)O)C(=O)O)C(=O)O)C(=O)O)C(=O)O)cc1)C(C)(C)C [SiFA-PSMA ligand 01 b]
[1]
  logD7.4: −4.04 ± 0.08
LNCaP cells
  Internalization: 126.43 ± 4.23%
[2]
  Binding to HSA: ≥99.0%
PSMA; [3]
  IC50: 11.8 ± 2.2 nM

## CC(C)(C)[Si](F)(c1ccc(C(=O)NC[C@@H](NC(=O)[C@@H](CCC(=O)O)NC(=O)[C@@H](CCC(=O)O)NC(=O)[C@H](N)CCC(=O)O)C(=O)N[C@H](CCCCNC(=O)CCC(=O)NCCC[C@@H](NC(=O)CC[C@H](NC(=O)N[C@@H](CCC(=O)O)C(=O)O)C(=O)O)C(=O)O)C(=O)O)cc1)C(C)(C)C [SiFA-PSMA ligand 03 b] (H-[dE][dE][dE][dDap](Benzoyl(4-SiFtBu2))[dK]([Suc-X1])-OH)
[1]
  logD7.4: −3.85 ± 0.04
LNCaP cells
  Internalization: 135.78 ± 5.50%
[2]
  Binding to HSA: 98.9%
PSMA; [3]
  IC50: 8.8 ± 1 nM

## CC(C)(C)[Si](F)(c1ccc(C(=O)NC[C@@H](NC(=O)CCCCCNC(=O)CC[C@H](NC(=O)N[C@@H](CCC(=O)O)C(=O)O)C(=O)O)C(=O)N[C@H](CCCCNC(=O)CCC(=O)NCCC[C@@H](NC(=O)CC[C@H](NC(=O)N[C@@H](CCC(=O)O)C(=O)O)C(=O)O)C(=O)O)C(=O)O)cc1)C(C)(C)C [SiFA-PSMA ligand 02 c]
[1]
  logD7.4: −3.27 ± 0.02
LNCaP cells
  Internalization: 156.95 ± 13.21%
[2]
  Binding to HSA: ≥99.0%
PSMA; [3]
  IC50: 5.9 ± 1 nM

## CC(C)(C)[Si](F)(c1ccc(C(=O)NC[C@@H](NC(=O)CNC(=O)CNC(=O)CNC(=O)CC[C@H](NC(=O)N[C@@H](CCC(=O)O)C(=O)O)C(=O)O)C(=O)N[C@H](CCCCNC(=O)CCC(=O)NCCC[C@@H](NC(=O)CC[C@H](NC(=O)N[C@@H](CCC(=O)O)C(=O)O)C(=O)O)C(=O)O)C(=O)O)cc1)C(C)(C)C [SiFA-PSMA ligand 02 e] ({Glu-CO-γGlu}-GGG[dDap](Benzoyl(4-SiFtBu2))[dK]([Suc-X1])-OH)
[1]
  logD7.4: −3.50 ± 0.04
LNCaP cells
  Internalization: 190.26 ± 16.87%
[2]
  Binding to HSA: ≥98.9%
PSMA
  IC50: 9 ± 2.2 nM
